Experimental data: patent US9775335B2, “Durable coating-embedded pesticides with peel and stick mosquito treatment of containers” (University of Florida Research Foundation, Inc., priority 2013, dated 2017)

Key:
Format in all cases: in vivo
mosquito larvae [1] = test: Mosquito larval mortality with coating-embedded larvicide, 0-week and 20-week aging (FIGS. 17-18)
Excerpt: FIG. 17 is a graph of mosquito larval mortality after 0-week aging with the average live mosquitoes on the vertical axis versus exposure time on the horizontal axis.
FIG. 18 is a graph of mosquito larval mortality after 20-week aging with the average live mosquitoes on the vertical axis versus exposure time on the horizontal axis.
FIG. 17 is a graph of mosquito larval mortality over 0-week aging with amount of mosquitoes on the vertical axis versus exposure time on the horizontal axis.
FIG. 18 is a graph of mosquito larval mortality over 20-week aging on the vertical axis versus exposure time on the horizontal axis.
By embedding the larvicide pyriproxyfen in a coating, the mosquito killing action is protected from degradation for more than 20 weeks.

mosquito larvae [2] = test: Adult mosquito emergence after high volume washing of coated containers (FIG. 24); details: embedded in polycrylic and polyurethane coatings; washed with tap water 5×, 20×, 50× container volume, refilled with fresh water
Procedure: Referring to FIG. 24, two of the coating tested previously (refer to FIG. 23) were also tested for durability under high volume washing to see if they could stand under heavy rains. The coatings applied to plastic containers were subject to continuous washing with tap water for total volumes equivalent to 5×, 20×, and 50× the container volumes. After wards the containers were refilled with fresh water and mosquito larvae were added to the water. Adult emergence from the larvae was only observed in containers with coatings that contained no embedded larvicide. […] Coatings prevent larvicide washing off, with up to 50 times the volume of water as contained in the ovitrap. Most larvicides are applied to water and disappear when containers are emptied and re filled either naturally by rain action or by other means. The coating constantly treats new water put in containers with enough larvicide to preserve the mosquito-killing action. Both polycrylic and polyurethane protect the action of pyriproxyfen larvicide when containers coated with these materials are subjected to washing.

mosquito larvae [3] = test: Adult mosquito emergence, larvicide embedded in different coatings at different rates (FIG. 23)
Excerpt: Referring to FIG. 23, three different coating were used to embed the larvicide pyriproxyfen at 3 different rates. Coatings were applied to plastic containers that were filled with water, before mosquito larvae were transferred to these containers.
Several different formulae (polycrylic, Polyurethane and Latex paint) have been tested as coatings for the larvicide. All coatings performed well in preventing adult emergence from larvae added to water-holding containers coated internally with the coating-embedded larvicide even with 0.0001% of the active ingredient in the coating. Water treated with 0.01% rate is considered potable by the World Health Organization (WHO).

CC(COc1ccc(Oc2ccccc2)cc1)Oc1ccccn1 (centres unmarked) [pyriproxyfen, Pyriproxyfen]
time for which the mosquito killing action is protected from degradation (mosquito larvae [1]; larvicide embedded in a coating): more than 20 weeks
mosquito larval mortality / prevention of mosquito emergence (mosquito larvae [1]; water in contact with coating-embedded larvicide or larvicide applied directly to container, new material or aged 20 weeks): mosquito larvae start to die as they reach the pupal stage
adult mosquito emergence after washing (mosquito larvae [2]): prevented the emergence of adults
adult mosquito emergence (mosquito larvae [3]; embedded in three different coatings at 3 rates, applied to plastic containers filled with water): no emergence of mosquitoes even at low pyriproxyfen content
adult mosquito emergence (mosquito larvae [3]; water standard (no coating), 3 rates): mosquito emergence was only inhibited at the high pyriproxyfen level
